Results taken from patent US12138254B2, “Chronic nightly dosing of lasmiditan for migraine prevention” (Eli Lilly and Company, priority 2018, dated 2024).

Assay: Fraction unbound in plasma and brain (FUplasma, FUbrain)

CN1CCC(C(=O)c2cccc(NC(=O)c3c(F)cc(F)cc3F)n2)CC1 [Lasmiditan, 2,4,6-trifluoro-N-[6-(1-methyl-piperidin-4-ylcarbonyl)-pyridin-2-yl]-benzamide]
FUbrain (brain): FUbrain = 0.117,
FUplasma (plasma): FUplasma = 0.459,
